{"source": "patent US20110275807A1", "about": "“Application of Evodiamine in preparing medicaments for Alzheimer's disease” (Institute of Laboratory Animal Science, Chinese Academy of …, priority 2010, published 2011)", "type_in_all_cases": "in vivo", "key": {"[1]": {"test_system": "APPswe/PSΔE9 transgenic model of Alzheimer's disease", "experiment": "Morris water-maze test in Alzheimer's disease mice model", "details": "100 mg/kg body weight/day in diet for 3 months; compared with the model group", "experimental": "The evodiamine treatment group was administrated in the standard diet plus evodiamine in a dose of 100 mg/kg body weight/day for 3 months. The model group received a standard diet as the placebo control. After a three-month continuous administration, the Morris water-maze tests were performed to test the effect of evodiamine on improvement of learning and memory abilities of the Alzheimer's disease mice model."}, "cyclaoxygenase-2 (COX-2)": {"test_system": "cyclaoxygenase-2 (COX-2)", "experiment": "Western Blotting of COX-2 expression in brain tissue of Alzheimer's disease model mice", "details": "100 mg/kg body weight/day in diet for 3 months, compared with the model group", "experimental": "The evodiamine treatment group was administrated in the standard diet plus evodiamine in a dose of 100 mg/kg body weight/day for 3 months. The model group received a standard diet as the placebo control. […] The inflammation is one of main reasons resulting in the pathological development of Alzheimer's disease, so Evodiamine can treat Alzheimer's disease."}, "IL-Iβ": {"test_system": "IL-Iβ", "experiment": "ELISA of IL-Iβ in brain tissues of Alzheimer's disease model mice", "details": "100 mg/kg body weight/day in diet for 3 months, compared with the model group", "experimental": "(§1) The evodiamine treatment group was administrated in the standard diet plus evodiamine in a dose of 100 mg/kg body weight/day for 3 months. The model group received a standard diet as the placebo control."}, "TNF-α": {"test_system": "TNF-α", "experiment": "ELISA of TNF-α in brain tissues of Alzheimer's disease model mice", "details": "100 mg/kg body weight/day in diet for 3 months, compared with the model group", "experimental": "as §1"}, "IL-6": {"test_system": "IL-6", "experiment": "ELISA of IL-6 in brain tissues of Alzheimer's disease model mice", "details": "100 mg/kg body weight/day in diet for 3 months, compared with the model group", "experimental": "as §1"}}, "data": [{"substance": "Evodiamine", "values": [{"measurement": "learning and memory abilities (Morris water-maze)", "setting": "[1]", "result": "significantly improved"}, {"measurement": "expression of the cyclaoxygenase-2 (COX-2) in the brain tissue", "setting": "cyclaoxygenase-2 (COX-2)", "result": "reduced"}, {"measurement": "IL-Iβ in the brain tissues", "setting": "IL-Iβ", "result": "significantly decreased"}, {"measurement": "TNF-α in the brain tissues", "setting": "TNF-α", "result": "significantly decreased"}, {"measurement": "IL-6 in the brain tissues", "setting": "IL-6", "result": "significantly decreased"}]}]}
